The source made the active and inactive calls.
Experiments:
T-24 [1] = experiment: Induction of apoptosis in human T24 cells assessed as effect on ZFP36L1 expression at 6 uM measured after 24 to 30 hrs by proteomic analysis; assay type: functional, cell-based; details: time 24-30 hrs
T-24 [2] = experiment: Antimigratory activity against human T24 cells assessed as down regulation of ITGA3 expression at 6 uM measured after 24 to 30 hrs by proteomic analysis; assay type: functional, cell-based; details: time 24-30 hrs
T-24 [3] = experiment: Antimigratory activity against human T24 cells assessed as down regulation of NEXN expression at 6 uM measured after 24 to 30 hrs by proteomic analysis; assay type: functional, cell-based; details: time 24-30 hrs
T-24 [4] = experiment: Induction of apoptosis in human T24 cells assessed as early apoptotic cells at 6 uM measured after 48 hrs by Annexin V-FITC/propidium iodide staining based flow cytometry (reference value: 1.2%); assay type: functional
T-24 [5] = experiment: Induction of apoptosis in human T24 cells assessed as viable cells at 8 uM measured after 48 hrs by Annexin V-FITC/propidium iodide staining based flow cytometry (reference value: 97.49%); assay type: functional; details: read-out: Activity
T-24 [6] = experiment: Effect on RNF169 expression in human T24 cells at 6 uM measured after 24 to 30 hrs by proteomic analysis; assay type: functional, cell-based; details: time 24-30 hrs
T-24 [7] = experiment: Induction of apoptosis in human T24 cells assessed as effect on AIFM2 expression at 6 uM measured after 24 to 30 hrs by proteomic analysis; assay type: functional, cell-based; details: time 24-30 hrs
T-24 [8] = experiment: Induction of apoptosis in human T24 cells assessed as effect on DHCR24 expression at 6 uM measured after 24 to 30 hrs by proteomic analysis; assay type: functional, cell-based; details: time 24-30 hrs
T-24 [9] = experiment: Induction of apoptosis in human T24 cells assessed as late apoptotic cells at 8 uM measured after 48 hrs by Annexin V-FITC/propidium iodide staining based flow cytometry (reference value: 0.74%); assay type: functional
T-24 [10] = experiment: Antitumor activity against human T24 cells xenografted in BALB/c mouse assessed as increase in HMOX1expression at 2 mg/kg, ip administered at 2 days interval by immunohistochemical analysis; assay type: functional, organism-based
T-24 [11] = experiment: Induction of mitochondrial membrane potential loss in human T24 cells at 8 to 16 uM measured after 24 hrs by JC1 dye based fluorescence assay; assay type: functional, cell-based; details: dose 8-16 µM
T-24 [12] = experiment: Effect on NBN expression in human T24 cells at 6 uM measured after 24 to 30 hrs by proteomic analysis; assay type: functional, cell-based; details: time 24-30 hrs
T-24 [13] = experiment: Induction of autophagy in human T24 cells assessed as effect on CISD2 gene expression at 6 uM measured after 12 to 18 hrs by transcriptome analysis; assay type: functional, cell-based; details: time 12-18 hrs
T-24 [14] = experiment: Induction of morphological changes in human T24 cells assessed as reduction in cell extension at 4 to 12 uM measured after 48 hrs by microscopy; assay type: functional, cell-based; details: dose 4-12 µM
T-24 [15] = experiment: Effect on PDCD2L expression in human T24 cells at 6 uM measured after 24 to 30 hrs by proteomic analysis; assay type: functional, cell-based; details: time 24-30 hrs
T-24 [16] = experiment: Induction of apoptosis in human T24 cells assessed as effect on FAM168A expression at 6 uM measured after 24 to 30 hrs by proteomic analysis; assay type: functional, cell-based; details: time 24-30 hrs
T-24 [17] = experiment: Cytotoxicity against human T24 cells assessed as reduction in cell growth measured after 24 hrs by live/dead staining based fluorescence assay; assay type: functional; details: dose 4-10 µM, DDE = dose-dependent effect
T-24 [18] = experiment: Induction of morphological changes in human T24 cells assessed as cell shrinkage at 4 to 12 uM measured after 48 hrs by microscopy; assay type: functional, cell-based; details: dose 4-12 µM
T-24 [19] = experiment: Induction of apoptosis in human T24 cells assessed as up regulation of HMOX1 expression at 6 to 12 uM measured after 24 to 30 hrs by Western blot analysis; assay type: functional, cell-based; details: dose 6-12 µM, time 24-30 hrs
T-24 [20] = experiment: Induction of apoptosis in human T24 cells assessed as late apoptotic cells at 6 uM measured after 48 hrs by Annexin V-FITC/propidium iodide staining based flow cytometry (reference value: 0.74%); assay type: functional
T-24 [21] = experiment: Effect on CLSPN expression in human T24 cells at 6 uM measured after 24 to 30 hrs by proteomic analysis; assay type: functional, cell-based; details: time 24-30 hrs
T-24 [22] = experiment: Induction of apoptosis in human T24 cells assessed as effect on G0S2 expression at 6 uM measured after 24 to 30 hrs by proteomic analysis; assay type: functional, cell-based; details: time 24-30 hrs
T-24 [23] = experiment: Induction of autophagy in human T24 cells assessed as effect on FLCN gene expression at 6 uM measured after 12 to 18 hrs by transcriptome analysis; assay type: functional, cell-based; details: time 12-18 hrs
T-24 [24] = experiment: Induction of apoptosis in human T24 cells assessed as late apoptotic cells at 4 uM measured after 48 hrs by Annexin V-FITC/propidium iodide staining based flow cytometry (reference value: 0.74%); assay type: functional
T-24 [25] = experiment: Antimigratory activity against human T24 cells assessed as down regulation of CFL2 expression at 6 uM measured after 24 to 30 hrs by proteomic analysis; assay type: functional, cell-based; details: time 24-30 hrs
T-24 [26] = experiment: Induction of mitochondrial membrane disruption in human T24 cells at 4 to 8 uM measured after 48 hrs by transmission electron microscopy; assay type: cell-based; details: dose 4-8 µM
T-24 [27] = experiment: Induction of autophagy in human T24 cells assessed as effect on WDR41 gene expression at 6 uM measured after 12 to 18 hrs by transcriptome analysis; assay type: functional, cell-based; details: time 12-18 hrs
T-24 [28] = experiment: Induction of autophagy in human T24 cells assessed as effect on LGALS8 gene expression at 6 uM measured after 12 to 18 hrs by transcriptome analysis; assay type: functional, cell-based; details: time 12-18 hrs
T-24 [29] = experiment: Induction of morphological changes in human T24 cells assessed as appearance of apoptotic bodies at 4 to 8 uM measured after 48 hrs by transmission electron microscopy; assay type: functional, cell-based; details: dose 4-8 µM
T-24 [30] = experiment: Induction of apoptosis in human T24 cells assessed as up regulation of LC3 expression at 6 to 12 uM measured after 24 hrs by immunofluorescence analysis; assay type: functional, cell-based; details: dose 6-12 µM
T-24 [31] = experiment: Induction of cell membrane disruption in human T24 cells at 4 to 8 uM measured after 48 hrs by transmission electron microscopy; assay type: cell-based; details: dose 4-8 µM
T-24 [32] = experiment: Effect on SUMO3 expression in human T24 cells at 6 uM measured after 24 to 30 hrs by proteomic analysis; assay type: functional, cell-based; details: time 24-30 hrs
T-24 [33] = experiment: Induction of ROS generation in human T24 cells at 4 to 10 uM measured after 6 hrs by H2DCFDA probe based flow cytometry; assay type: functional, cell-based; details: dose 4-10 µM
T-24 [34] = experiment: Induction of apoptosis in human T24 cells assessed as necrotic cells at 6 uM measured after 48 hrs by Annexin V-FITC/propidium iodide staining based flow cytometry (reference value: 0.57%); assay type: functional
T-24 [35] = experiment: Induction of apoptosis in human T24 cells assessed as up regulation of HMOX1 gene expression at 6 uM measured after 12 to 18 hrs by transcriptome analysis; assay type: functional, cell-based; details: time 12-18 hrs
[36] = Toxicity in human T24 cells xenografted BALB/c mouse assessed as effect on body weight at 2 mg/kg, ip administered at 2 days interval; assay type: organism-based, T-24; details: in vivo, 48 h
T-24 [37] = experiment: Up regulation of SLC7A11 expression in human T24 cells at 6 uM measured after 24 to 30 hrs by proteomic analysis; assay type: functional, cell-based; details: time 24-30 hrs
T-24 [38] = experiment: Cytotoxicity against human T24 cells assessed as reduction in cell growth at 4 uM by CCK8 assay; assay type: functional, cell-based; details: time 24-72 hrs, TDE = time-dependent effect
UMUC3 = experiment: Cytotoxicity against human UMUC3 cells assessed as reduction in cell growth by CCK8 assay; assay type: functional, cell-based

C=C1C(=O)[C@]23C[C@H]1C[C@@H](O)[C@H]2[C@@]12CO[C@@H](O)[C@@H]1C(C)(C)CC[C@@H]2OC3=O [NODOSIN]
Non-Toxic: Activity [36]
1.34%: Activity (T-24 [24])
13.17%: Activity (T-24 [9])
active: Activity (T-24 [1]) | Activity (T-24 [2]) | Activity (T-24 [3]) | Activity (T-24 [6]) | Activity (T-24 [7]) | Activity (T-24 [8]) | Activity (T-24 [10]) | Activity (T-24 [11]) | Activity (T-24 [12]) | Activity (T-24 [13]) | Activity (T-24 [14]) | Activity (T-24 [15]) | Activity (T-24 [16]) | Activity (T-24 [17]) Dde | Activity (T-24 [18]) | Activity (T-24 [19]) | Activity (T-24 [21]) | Activity (T-24 [22]) | Activity (T-24 [23]) | Activity (T-24 [25]) | Activity (T-24 [26]) | Activity (T-24 [27]) | Activity (T-24 [28]) | Activity (T-24 [29]) | Activity (T-24 [30]) | Activity (T-24 [31]) | Activity (T-24 [32]) | Activity (T-24 [33]) | Activity (T-24 [35]) | Activity (T-24 [37]) | Activity (T-24 [38]) Tde | Activity (UMUC3; DDE = dose-dependent effect) Dde
10.04%: Activity (T-24 [20])
75.9%: viability at 8 µM (T-24 [5])
3.45 µM: IC50 (UMUC3)
0.4%: Activity (T-24 [34])
10.74%: Activity (T-24 [4])

— ChEMBL document CHEMBL5120971, “Network Pharmacology Research and Dual-omic Analyses Reveal the Molecular Mechanism of Natural Product Nodosin Inhibiting Muscle-Invasive Bladder Cancer in Vitro and in Vivo” (J Nat Prod, 2022)
